From PMC10222209 (Pharmaceuticals, 2023)
“Also recorded” adds a separate entry of the source. Like-named read-outs stand apart in the source and are kept apart here.

What was measured:
LNCaP95 cells = assay: Antiproliferative assay (resazurin, 72 h) in LNCaP95 cells; format: cell-based
Experimental: (§1) 22Rv1 cells were obtained from ATCC. LNCaP95 cells were provided by Dr. Yan Dong’s laboratory (Tulane University School of Medicine). LNCaP95 cells were maintained in an RPMI1640 medium with charcoal-stripped serum (CSS). 22Rv1 cells were maintained in an RPMI1640 medium with 10% FBS. Cells were seeded in 96-well plates (5 × 10^3 cells/well) containing a 50 μL growth medium for 24 h. After medium removal, a 100 μL fresh medium containing individual compounds at different concentrations was added to each well and incubated at 37 °C for 72 h. Then, 20 μL of resazurin was added for 2 h before recording fluorescence at 560 nm (excitation) and 590 nm (emission) using a Victor microtiter plate fluorometer (Perkin-Elmer, Waltham, MA, USA).

22RV1 cells = assay: Antiproliferative assay (resazurin, 72 h) in 22RV1 cells; format: cell-based; details: for inhibition at 1 µM / IC50: Homo sapiens; for antiproliferative activity, in words: enzalutamide-resistant cell lines LNCaP95 and 22RV1, SAR statements
Experimental: as §1

[1] = LNCaP-95, antiproliferation, LNCaP95, 72 h, mean of three independent experiments, read-out: IC50 (μM) LNCaP95
[2] = 22RV1, 1.0 μM, read-out: Inhibitory Rate 22RV1 @1.0 μM
[3] = antiproliferation, 22RV1, 72 h, mean of three independent experiments, read-out: IC50 (μM) 22RV1
[4] = observed, −log IC50, 22RV1 antiproliferation, read-out: Obs pIC50 (converted)

Row | SMILES | IC50 (LNCaP95 cells; [1]) | inhibition at 1 µM (22RV1 cells; [2]) | IC50 (22RV1 cells; [3]) | IC50 (22RV1 cells; [4]) | antiproliferative activity, in words (22RV1 cells) | IC50 (LNCaP95 cells; LNCaP-95, 72 h, read-out: IC50 (μM) LNCaP95) | IC50 (22RV1 cells; 22Rv1, 72 h, read-out: IC50 (μM) 22RV1) | inhibition at 1 µM (22RV1 cells; 22Rv1, read-out: Inhibitory Rate 22RV1 @1.0 μM) | IC50 (22RV1 cells; 22Rv1, read-out: Obs pIC50 (converted)) | IC50 (LNCaP95 cells; LNCaP-95, antiproliferation, approximate value, read-out: IC50 in LNCaP95 (text)) | IC50 (22RV1 cells; 22Rv1, antiproliferation, approximate value, read-out: IC50 in 22RV1 (text))
1 | O=C(Nc1ccnc(C(F)(F)F)c1)c1cc(F)ccc1O [B11] | 0.392 ± 0.136 µM | 47.7% | 0.581 ± 0.205 µM | 0.581 µM |  |  |  |  |  |  | 
2 | O=C(Nc1ccc([N+](=O)[O-])c(C(F)(F)F)c1)c1ccc(Cl)cc1O [A6] | 0.214 ± 0.067 µM | 54.4% | 0.424 ± 0.12 µM | 0.424 µM | equivalent or improved anti-proliferation potency |  |  |  |  |  | 
3 | O=C(Nc1ccc([N+](=O)[O-])c(F)c1)c1cc(Cl)ccc1O [A15] | 0.755 ± 0.221 µM | 55.4% | 0.28 ± 0.092 µM | 0.28 µM |  |  |  |  |  |  | 
4 | Cc1cc([N+](=O)[O-])ccc1NC(=O)c1ccc(Cl)cc1O [A2] | 0.62 ± 0.311 µM | 47.1% | 0.676 ± 0.245 µM | 0.676 µM |  |  |  |  |  |  | 
5 | O=C(Nc1ccc([N+](=O)[O-])cc1F)c1ccc(Cl)cc1O [A1] | 1.19 ± 0.53 µM | 54.3% | 0.467 ± 0.131 µM | 0.467 µM |  |  |  |  |  |  | 
6 | O=C(Nc1ccc([N+](=O)[O-])c(C(F)(F)F)c1)c1cc(Cl)ccc1O [A16] | 0.693 ± 0.314 µM | 47.5% | 0.556 ± 0.112 µM | 0.556 µM |  |  |  |  |  |  | 
7 | O=C(Nc1ccc([N+](=O)[O-])cc1Cl)c1cccc(Cl)c1 [C2] |  | 19% |  |  | significant loss of activity |  |  |  |  |  | 
8 | O=C(Nc1ccc(C(F)(F)F)c(C(F)(F)F)c1)c1cccc(Cl)c1 [C1] | 0.299 µM | 53.1% | 0.32 ± 0.115 µM | 0.32 µM | retained |  |  |  |  |  | 
9 | COc1cc([N+](=O)[O-])ccc1NC(=O)c1ccc(Cl)cc1O [A3] | 2.48 ± 0.702 µM | 50% | 0.714 ± 0.303 µM | 0.714 µM |  |  |  |  |  |  | 
10 | Cc1cc([N+](=O)[O-])ccc1NC(=O)c1cc(Cl)ccc1O [A12] | 0.493 ± 0.105 µM | 58% | 0.248 ± 0.063 µM | 0.248 µM |  |  |  |  |  |  | 
11 | O=C(Nc1ccc([N+](=O)[O-])c(C(F)(F)F)c1)c1cccc(Cl)c1 [C3] | 0.33 ± 0.081 µM | 43.7% | 0.557 ± 0.127 µM | 0.557 µM | retained |  |  |  |  |  | 
12 | N#Cc1ccc(O)c(C(=O)Nc2ccc(C(F)(F)F)c(C(F)(F)F)c2)c1 [B15] | 2.35 ± 0.53 µM | 44.8% | 1.04 ± 0.26 µM | 1.04 µM |  |  |  |  |  |  | 
13 | O=C(Nc1ccc([N+](=O)[O-])cc1C(F)(F)F)c1cc(Cl)ccc1O [A11] |  | -8.3% |  |  |  |  |  |  |  |  | 
14 | O=C(Nc1ccc([N+](=O)[O-])c(Cl)c1)c1cc(Cl)ccc1O [A14] |  |  |  |  |  | 1.67 ± 0.25 µM | 0.386 ± 0.171 µM | 51.3% | 0.386 µM |  | 
15 | Cc1cc(NC(=O)c2ccc(Cl)cc2O)ccc1[N+](=O)[O-] [A7] | 0.789 ± 0.436 µM | 42.5% | 0.976 ± 0.205 µM | 0.975 µM |  |  |  |  |  |  | 
16 | N#Cc1cc(NC(=O)c2cc(F)ccc2O)ccc1C(F)(F)F [B8] | 0.396 ± 0.065 µM | 60.4% | 0.24 ± 0.048 µM | 0.24 µM |  |  |  |  |  |  | 
17 | O=C(Nc1ccc([N+](=O)[O-])cc1F)c1cc(Cl)ccc1O [A10] | 0.373 ± 0.069 µM | 56% | 0.271 ± 0.125 µM | 0.271 µM |  |  |  |  |  |  | 
18 | CNC(=O)c1ccc(N2C(=S)N(c3ccc(C#N)c(C(F)(F)F)c3)C(=O)C2(C)C)cc1F [Enzalutamide, reference compound] |  | 24.1% |  |  |  |  |  |  |  |  | 

Row | SMILES | IC50 (LNCaP95 cells; [1]) | inhibition at 1 µM (22RV1 cells; [2]) | IC50 (22RV1 cells; [3]) | IC50 (22RV1 cells; [4]) | antiproliferative activity, in words (22RV1 cells) | IC50 (LNCaP95 cells; LNCaP-95, 72 h, read-out: IC50 (μM) LNCaP95) | IC50 (22RV1 cells; 22Rv1, 72 h, read-out: IC50 (μM) 22RV1) | inhibition at 1 µM (22RV1 cells; 22Rv1, read-out: Inhibitory Rate 22RV1 @1.0 μM) | IC50 (22RV1 cells; 22Rv1, read-out: Obs pIC50 (converted)) | IC50 (LNCaP95 cells; LNCaP-95, antiproliferation, approximate value, read-out: IC50 in LNCaP95 (text)) | IC50 (22RV1 cells; 22Rv1, antiproliferation, approximate value, read-out: IC50 in 22RV1 (text))
19 | O=C(Nc1ccc([N+](=O)[O-])cc1)c1cc(Cl)ccc1O [A9] | 0.812 ± 0.374 µM | 44.9% | 0.581 ± 0.289 µM | 0.581 µM |  |  |  |  |  |  | 
20 | Nc1ccc(NC(=O)c2cc(Cl)ccc2O)c(Cl)c1 [B2] |  | 19.6% |  |  | complete loss of activity |  |  |  |  |  | 
21 | COc1cc(NC(=O)c2ccc(Cl)cc2O)ccc1[N+](=O)[O-] [A8] | 0.615 ± 0.138 µM | 35.9% | 2.11 ± 0.52 µM | 2.11 µM |  |  |  |  |  |  | 
22 | N#Cc1ccc(NC(=O)c2cc(F)ccc2O)c(Cl)c1 [B12] | > 10 µM | 44.3% | 3.23 ± 1.84 µM | 3.23 µM |  |  |  |  |  |  | 
23 | O=C(Nc1ccc([N+](=O)[O-])cc1Cl)c1cccc(Br)c1 [C4] |  | 31.2% |  |  | significant loss of activity |  |  |  |  |  | 
24 | O=C(Nc1ccc(C(F)(F)F)nc1)c1cc(F)ccc1O [B10] | 0.627 ± 0.225 µM | 42.3% | 0.547 ± 0.153 µM | 0.547 µM |  |  |  |  |  |  | 
25 | CC(=O)Oc1ccc(Cl)cc1C(=O)Nc1ccc([N+](=O)[O-])cc1Cl [C7] | 0.386 ± 0.098 µM | 42.9% | 0.481 ± 0.113 µM | 0.481 µM | comparable activity |  |  |  |  |  | 
26 | COc1cc(NC(=O)c2cc(Cl)ccc2O)ccc1[N+](=O)[O-] [A18] | 2.11 ± 0.46 µM | 55.4% | 0.483 ± 0.145 µM | 0.483 µM |  |  |  |  |  |  | 
27 | O=C(Nc1ccc([N+](=O)[O-])c(C(F)(F)F)c1)c1cccc(Br)c1 [C5] | 0.536 ± 0.201 µM | 58.3% | 0.306 ± 0.058 µM | 0.306 µM | retained |  |  |  |  |  | 
28 | O=C(Nc1ccc(C(F)(F)F)cc1F)c1cc(F)ccc1O [B6] | 0.185 ± 0.041 µM | 62.5% | 0.196 ± 0.032 µM | 0.196 µM | equivalent or improved anti-proliferation potency |  |  |  |  |  | 
29 | O=C(Nc1ccc([N+](=O)[O-])cc1Cl)c1cc(Cl)ccc1OS(=O)(=O)C(F)(F)F [C8] | 0.196 ± 0.064 µM | 59.2% | 0.252 ± 0.092 µM | 0.252 µM | equivalent or improved anti-proliferation potency; also recorded: slightly improved |  |  |  |  |  | 
30 | O=C(Nc1ccc([N+](=O)[O-])c(Cl)c1)c1ccc(Cl)cc1O [A4] | 3.43 ± 0.49 µM | 47.5% | 0.713 ± 0.178 µM | 0.713 µM |  |  |  |  |  |  | 
31 | COc1cc([N+](=O)[O-])ccc1NC(=O)c1cc(Br)ccc1O [A20] | 0.304 ± 0.053 µM | 60.2% | 0.242 ± 0.044 µM | 0.242 µM | equivalent or improved anti-proliferation potency |  |  |  |  |  | 
32 | O=C(Nc1ccc(C(F)(F)F)c(C(F)(F)F)c1)c1cc(C(F)(F)F)ccc1O [B16] | 0.113 ± 0.044 µM | 64.6% | 0.111 ± 0.023 µM | 0.111 µM | equivalent or improved anti-proliferation potency |  |  |  |  | ~0.1 µM | ~0.1 µM
33 | N#Cc1cc(C(F)(F)F)ccc1NC(=O)c1cc(F)ccc1O [B7] | 4.38 ± 1.33 µM | 42.3% | 7.92 ± 2.56 µM | 7.93 µM |  |  |  |  |  |  | 
34 | N#Cc1ccc(NC(=O)c2cc(F)ccc2O)c(F)c1 [B13] | 0.231 ± 0.072 µM | 65.6% | 0.184 ± 0.061 µM | 0.184 µM |  |  |  |  |  |  | 
35 | Cc1cc(NC(=O)c2cc(Cl)ccc2O)ccc1[N+](=O)[O-] [A17] | 0.867 ± 0.298 µM | 50.1% | 0.324 ± 0.058 µM | 0.324 µM |  |  |  |  |  |  | 
36 | O=C(Nc1ccc([N+](=O)[O-])cc1Cl)c1cc(Br)ccc1O [A19] |  | 13.4% |  |  | dramatic loss of activity |  |  |  |  |  | 
